Measured values: ChEMBL document CHEMBL4680246, “Design, synthesis and biological evaluation of novel O-carbamoyl ferulamide derivatives as multi-target-directed ligands for the treatment of Alzheimer's disease” (Eur J Med Chem, 2020)
pIC50: −log10 of the molar value. The source made the active and inactive calls. The rule behind the calls is not given here.

How the values were obtained:
[1] = Toxicity in AlCl3-induced Zebrafish model of Alzheimer's disease assessed as mortality at 2.5 ug/ml relative to control; parameters: species or system Danio rerio; details: in vivo, at 2.5 µg/mL
[2] = Toxicity in AlCl3-induced Zebrafish model of Alzheimer's disease assessed as mortality at 200 ug/ml relative to control; parameters: species or system Danio rerio; details: in vivo, at 200 µg/mL
[3] = species on record: Danio rerio; assay: Antialzheimer activity in AlCl3-induced Zebrafish model of Alzheimer's disease assessed as increase in motility speed at 1 ug/ml relative to control; format: functional; details: dose 1 µg/ml
[4] = species on record: Danio rerio; assay: Antialzheimer activity in AlCl3-induced Zebrafish model of Alzheimer's disease assessed as change in motility speed at […] (reference value: 1.08 mm/s); format: functional; details: dose 0.11 µg/ml
[5] = Toxicity in Zebrafish assessed as induction of yolk sac absorption delay at 6.25 ug/ml relative to control; parameters: species or system Danio rerio; details: in vivo, at 6.25 µg/mL
[6] = Toxicity in Zebrafish assessed as effect on kidney at 6.25 ug/ml relative to control; parameters: species or system Danio rerio; details: in vivo, at 6.25 µg/mL
[7] = tested on: Mus musculus; assay: Improvement in brain cholinergic activity in scopolamine-induced mouse model of amnesia assessed as reduction in AChE vitality at 5 to 10 mg/kg; format: functional, organism-based; details: dose 5-10 mg/kg
[8] = Toxicity in Zebrafish assessed as slow blood flow at 6.25 ug/ml relative to control; format: tissue-based, Danio rerio; details: at 6.25 µg/mL
[9] = Acute toxicity in Kunming mouse assessed as piloerection at 250 to 1000 mg/kg measured after 4 hrs; format: organism-based; details: in vivo, dose 250-1000 mg/kg
[10] = Toxicity in Zebrafish assessed as small or misshapen eyes at 6.25 ug/ml relative to control; parameters: species or system Danio rerio; details: in vivo, at 6.25 µg/mL
[11] = Acute toxicity in Kunming mouse assessed as mortality at 50 to 1000 mg/kg; format: organism-based; details: in vivo, dose 50-1000 mg/kg
[12] = target: T1, Cholinesterase (Homo sapiens, UniProt P06276); assay: Inhibition of human serum BuChE assessed as residual activity at 0.1 times IC50 using acetylcholine iodide as substrate measured after dilution by Ellman's method relative to control
[13] = species on record: Danio rerio; assay: Antialzheimer activity in AlCl3-induced Zebrafish model of Alzheimer's disease assessed as increase in motility distance at […] relative to control; format: functional; details: dose 0.11 µg/ml
[14] = species on record: Danio rerio; assay: Protection against amyloid beta (1 to 42)-induced zebrafish model of vascular injury assessed as reduction in vascular injury at 0.33 ug/ml relative to control; format: functional; details: dose 0.33 µg/ml
[15] = tested on: HT-22; assay: Effect on APP protein level in mouse HT22 cells transfected with pEGFP-N1-APP plasmid assessed as reduction in fluorescence intensity by fluorescence microscopy; format: functional, cell-based
[16] = tested on: HT-22; assay: Down regulation of tau protein expression in mouse HT22 cells transfected with pRK5-GFP-Tau P301L plasmid at 2.5 to 20 uM by Western blot analysis; format: functional, cell-based; details: dose 2.5-20 µM
[17] = Drug metabolism in rat liver microsomes by HPLC analysis; format: ADME, Microsome
[18] = Toxicity in Zebrafish assessed as induction of yolk sac absorption delay at 1.04 ug/ml relative to control; parameters: species or system Danio rerio; details: in vivo, at 1.04 µg/mL
[19] = Toxicity in Zebrafish assessed as small or misshapen brain at 6.25 ug/ml relative to control; format: tissue-based, Danio rerio; details: in vivo, at 6.25 µg/mL
[20] = target: T1, Cholinesterase; assay: Inhibition of human serum BuChE using acetylcholine iodide as substrate incubated for 15 mins by Ellman's method
[21] = Permeability of compound by PAMPA-BBB assay; format: ADME; details: read-out: permeability
[22] = species on record: Danio rerio; assay: Antialzheimer activity in AlCl3-induced Zebrafish model of Alzheimer's disease assessed as increase in motility distance at 1 ug/ml relative to control; format: functional; details: dose 1 µg/ml
[23] = Toxicity in Zebrafish assessed as pericardial edema at 6.25 ug/ml relative to control; parameters: species or system Danio rerio; details: in vivo, at 6.25 µg/mL
[24] = Toxicity in Zebrafish assessed as mortality at 100 ug/ml relative to control; parameters: species or system Danio rerio; details: in vivo, at 100 µg/mL
[25] = Toxicity in Zebrafish assessed as induction of yolk sac absorption delay at 3.125 ug/ml relative to control; parameters: species or system Danio rerio; details: in vivo, at 3.125 µg/mL
[26] = target: Amyloid-beta precursor protein (Homo sapiens) (UniProt P05067); assay: Disaggregation of self-induced amyloid beta (1 to 42) (unknown origin) preformed fibrils at 25 uM measured after 24 hrs by transmission electron microscopic analysis
[27] = Toxicity in AlCl3-induced Zebrafish model of Alzheimer's disease assessed as mortality at 5 ug/ml relative to control; parameters: species or system Danio rerio; details: in vivo, at 5 µg/mL
[28] = tested on: Mus musculus; assay: Improvement in brain cholinergic activity in scopolamine-induced mouse model of amnesia assessed as change in AChE vitality at 20 mg/kg (reference value: 0.105 U/mg); format: functional
[29] = Toxicity in Zebrafish assessed as mortality at 6.25 ug/ml relative to control; parameters: species or system Danio rerio; details: in vivo, at 6.25 µg/mL
[30] = tested on: HT-22; assay: Down regulation of APP protein expression in mouse HT22 cells transfected with pEGFP-N1-APP plasmid at 10 to 20 uM by Western blot analysis; format: functional, cell-based; details: dose 10-20 µM
[31] = Effect on tau protein level in mouse HT22 cells transfected with pRK5-GFP-Tau P301L plasmid assessed as fluorescence intensity at 20 uM by fluorescence microscopy (reference value: 33.6); format: functional, HT-22
[32] = Toxicity in Zebrafish assessed as mortality at 50 ug/ml relative to control; parameters: species or system Danio rerio; details: in vivo, at 50 µg/mL
[33] = tested on: L02; assay: Cytotoxicity against human LO2 cells assessed as reduction in cell viability at 25 uM by MTT assay; format: cell-based; details: l02, 25 µM
[34] = Toxicity in Zebrafish assessed as induction of kidney edema at 6.25 ug/ml relative to control; parameters: species or system Danio rerio; details: in vivo, at 6.25 µg/mL
[35] = Effect on APP protein level in mouse HT22 cells transfected with pEGFP-N1-APP plasmid assessed as fluorescence intensity at 5 uM by fluorescence microscopy (reference value: 33.2); format: functional, HT-22
[36] = tested on: HT-22; assay: Cytotoxicity against mouse HT22 cells assessed as effect on cell viability at 10 uM by MTT assay; format: cell-based; details: ht-22, 10 µM
[37] = Toxicity in Zebrafish assessed as degenerating muscle within the somites at 6.25 ug/ml relative to control; parameters: species or system Danio rerio; details: in vivo, at 6.25 µg/mL
[38] = Effect on APP protein level in mouse HT22 cells transfected with pEGFP-N1-APP plasmid assessed as fluorescence intensity at 10 uM by fluorescence microscopy (reference value: 33.2); format: functional, HT-22
[39] = Acute toxicity in Kunming mouse assessed as piloerection at 250 to 1000 mg/kg measured after 24 hrs; format: organism-based; details: in vivo, dose 250-1000 mg/kg
[40] = tested on: Mus musculus; assay: Improvement in brain cholinergic activity in scopolamine-induced mouse model of amnesia assessed as change in ChAT vitality at 20 mg/kg (reference value: 28.8 U/g); format: functional
[41] = Acute toxicity in Kunming mouse assessed as damage in heart at 50 to 1000 mg/kg measured after 7 days; format: organism-based; details: in vivo, 168 h, dose 50-1000 mg/kg, time 7 day

T1 sequence (P06276 whole entry): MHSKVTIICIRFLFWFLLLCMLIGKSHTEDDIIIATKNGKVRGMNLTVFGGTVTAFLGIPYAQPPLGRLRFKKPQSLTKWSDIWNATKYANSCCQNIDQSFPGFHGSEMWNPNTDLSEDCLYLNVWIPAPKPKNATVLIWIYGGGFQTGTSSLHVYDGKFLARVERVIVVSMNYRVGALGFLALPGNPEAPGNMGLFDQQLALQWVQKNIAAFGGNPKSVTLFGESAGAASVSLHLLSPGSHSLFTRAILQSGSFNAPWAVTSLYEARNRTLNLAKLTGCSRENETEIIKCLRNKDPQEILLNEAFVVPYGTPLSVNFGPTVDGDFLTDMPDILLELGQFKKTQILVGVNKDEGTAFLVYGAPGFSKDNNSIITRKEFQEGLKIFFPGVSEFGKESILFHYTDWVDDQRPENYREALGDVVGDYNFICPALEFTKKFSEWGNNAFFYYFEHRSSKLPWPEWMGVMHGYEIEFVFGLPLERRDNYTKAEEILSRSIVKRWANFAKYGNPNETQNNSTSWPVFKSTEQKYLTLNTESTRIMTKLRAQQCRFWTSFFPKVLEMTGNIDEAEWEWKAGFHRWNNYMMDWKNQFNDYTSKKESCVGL
Chain of Amyloid-beta precursor protein (Homo sapiens) (P05067 whole entry): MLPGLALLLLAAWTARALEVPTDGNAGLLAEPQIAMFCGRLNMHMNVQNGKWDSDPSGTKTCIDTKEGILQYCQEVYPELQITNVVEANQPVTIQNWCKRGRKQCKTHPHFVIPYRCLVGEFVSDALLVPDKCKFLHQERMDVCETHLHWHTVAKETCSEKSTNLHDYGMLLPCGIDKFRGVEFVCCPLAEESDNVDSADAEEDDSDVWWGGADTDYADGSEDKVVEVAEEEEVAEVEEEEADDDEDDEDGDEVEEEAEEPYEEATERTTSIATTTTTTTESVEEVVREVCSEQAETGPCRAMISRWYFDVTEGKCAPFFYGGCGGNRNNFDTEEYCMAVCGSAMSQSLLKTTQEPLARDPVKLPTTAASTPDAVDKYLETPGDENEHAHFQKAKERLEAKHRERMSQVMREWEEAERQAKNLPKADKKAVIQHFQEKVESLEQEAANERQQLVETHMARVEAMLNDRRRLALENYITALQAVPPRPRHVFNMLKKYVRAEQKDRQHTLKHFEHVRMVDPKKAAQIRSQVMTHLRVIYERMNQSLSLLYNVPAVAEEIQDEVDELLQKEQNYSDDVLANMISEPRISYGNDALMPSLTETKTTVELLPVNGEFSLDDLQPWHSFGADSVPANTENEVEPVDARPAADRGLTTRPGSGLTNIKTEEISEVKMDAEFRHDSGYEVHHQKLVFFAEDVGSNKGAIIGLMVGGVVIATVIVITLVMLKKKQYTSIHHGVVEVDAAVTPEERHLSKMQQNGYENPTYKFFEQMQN

SMILES: CCN(C)C(=O)Oc1ccc(/C=C/C(=O)N2CCc3ccccc3C2)cc1OC
- mortality at 2.5 ug/ml [1]: 0%
- mortality at 200 ug/ml [2]: 100%
- Efficacy [3]: 86.3%
- Activity [4]: 1.79 millimeter/sec
- Activity [5]: 100%
- Activity [6]: 23.3%
- Activity [7]: Active
- Activity [8]: 16.7%
- Activity [9]: Non-Toxic
- Activity [10]: 26.7%
- Activity [11]: Non-Toxic
- Activity [12]: 47.1%
- Efficacy [13]: 54.9%
- Efficacy [14]: 9%
- Activity [15]: Dose-dependent effect
- Activity [16]: Active
- Drug metabolism [17]: Metabolite_Detected
- Activity [18]: 13.3%
- Activity [19]: 26.7%
- pIC50 [20]: 6.01
- Papp [21]: 21.4 ×10⁻⁶ cm/s
- Efficacy [22]: 85.9%
- Activity [23]: 46.7%
- mortality at 100 ug/ml [24]: 100%
- Activity [25]: 40%
- Activity [26]: Active
- mortality at 5 ug/ml [27]: 0%
- Activity [28]: 0.1 U/mg
- mortality at 6.25 ug/ml [29]: 6.7%
- Activity [30]: Active
- Flu intensity [31]: 17.9
- mortality at 50 ug/ml [32]: 100%
- Activity [33]: Non-Toxic
- Activity [34]: 33.3%
- Flu intensity [35]: 13.6
- Activity [36]: Non-Toxic
- Activity [37]: 36.7%
- Flu intensity [38]: 13.3
- Activity [39]: Non-Toxic
- Activity [40]: 54.1 U/g
- Activity [41]: Non-Toxic
